Source: ChEMBL document CHEMBL1145754, “Design and synthesis of statine-containing BACE inhibitors” (Bioorg Med Chem Lett, 2003)
pIC50: −log10 of the molar value. Non-standard residues stand in square brackets, D forms with d. Residues, ends and D or L forms follow the SMILES beside them. *: point of attachment. Sta = CC(C)C[C@H](N)[C@@H](O)CC(=O)O; 3Amb = NCc1cccc(C(=O)O)c1; Nle = CCCC[C@H](N)C(=O)O; Nva = CCC[C@H](N)C(=O)O; X1 = O=C(C1CCCCO1)*

The molecules below were run against Beta-secretase 1 (Homo sapiens, UniProt P56817) (assay: Inhibition of human beta-secretase).
Beta-secretase 1, sequence (P56817 whole entry): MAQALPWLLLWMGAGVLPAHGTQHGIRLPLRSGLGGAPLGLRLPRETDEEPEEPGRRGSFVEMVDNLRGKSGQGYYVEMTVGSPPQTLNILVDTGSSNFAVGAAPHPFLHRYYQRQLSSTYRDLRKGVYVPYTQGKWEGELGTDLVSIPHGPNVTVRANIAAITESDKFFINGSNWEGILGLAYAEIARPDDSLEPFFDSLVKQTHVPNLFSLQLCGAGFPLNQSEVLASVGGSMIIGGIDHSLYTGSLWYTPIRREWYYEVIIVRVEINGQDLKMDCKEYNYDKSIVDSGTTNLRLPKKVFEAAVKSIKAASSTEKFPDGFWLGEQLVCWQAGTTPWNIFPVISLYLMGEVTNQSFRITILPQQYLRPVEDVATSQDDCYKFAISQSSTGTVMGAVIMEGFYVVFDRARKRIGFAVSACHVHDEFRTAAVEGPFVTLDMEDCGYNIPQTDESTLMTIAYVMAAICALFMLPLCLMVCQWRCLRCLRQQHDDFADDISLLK

Going from `CC(=O)N[C@@H](CC(C)C)C(=O)N[C@@H](C)C(=O)N[C@@H](CC(C)C)[C@@H](O)CC(=O)N[C@H](C(=O)NCc1cccc(C(=O)O)c1)C(C)C` to `CC(=O)N[C@@H](CC(C)C)C(=O)N[C@H](C)C(=O)N[C@@H](CC(C)C)[C@@H](O)CC(=O)N[C@H](C(=O)NCc1cccc(C(=O)O)c1)C(C)C`, the pIC50 falls from 6.28 to < 4.04.

Going from `CSCC[C@H](NC(=O)[C@H](CC(C)C)NC(C)=O)C(=O)N[C@@H](CC(C)C)[C@@H](O)CC(=O)N[C@H](C(=O)NCc1cccc(C(=O)O)c1)C(C)C` to `CSCC[C@@H](NC(=O)[C@H](CC(C)C)NC(C)=O)C(=O)N[C@@H](CC(C)C)[C@@H](O)CC(=O)N[C@H](C(=O)NCc1cccc(C(=O)O)c1)C(C)C`, the pIC50 falls from 6.05 to < 4.04. The first is the more potent here.

Compared with `CC[C@@H](C)[C@@H](NC(C)=O)C(=O)N[C@@H](C)C(=O)N[C@@H](CC(C)C)[C@@H](O)CC(=O)N[C@H](C(=O)NCc1cccc(C(=O)O)c1)C(C)C`, `CC[C@H](C)[C@H](NC(C)=O)C(=O)N[C@@H](C)C(=O)N[C@@H](CC(C)C)[C@@H](O)CC(=O)N[C@H](C(=O)NCc1cccc(C(=O)O)c1)C(C)C` is higher in pIC50: < 4.04 for the first, 6.60 for the second. The second is the more potent here.

Compared with `CSCC[C@H](NC(=O)[C@H](CC(C)C)NC(C)=O)C(=O)N[C@@H](CC(C)C)[C@@H](O)CC(=O)N[C@@H](C(=O)NCc1cccc(C(=O)O)c1)C(C)C`, `CCC[C@H](NC(C)=O)C(=O)N[C@@H](C)C(=O)N[C@@H](CC(C)C)[C@@H](O)CC(=O)N[C@H](C(=O)NCc1cccc(C(=O)O)c1)C(C)C` (Ac-[Nva]A[Sta]V[3Amb]-OH) is higher in pIC50: < 4.04 for the first, 6.08 for the second. The second is the more potent here.

Compared with `CC[C@H](C)[C@H](NC(C)=O)C(=O)N[C@@H](C)C(=O)N[C@@H](CC(C)C)[C@@H](O)CC(=O)N[C@@H](Cc1ccccc1)C(=O)NCc1cccc(C(=O)O)c1` (Ac-IA[Sta]F[3Amb]-OH), `CC[C@H](C)[C@H](NC(C)=O)C(=O)N[C@@H](CCSC)C(=O)N[C@@H](CC(C)C)[C@@H](O)CC(=O)N[C@@H](Cc1ccccc1)C(=O)NCc1cccc(C(=O)O)c1` (Ac-IM[Sta]F[3Amb]-OH) is 0.25 log units higher in pIC50: 6.60 for the first, 6.85 for the second.

`CC[C@H](C)[C@H](NC(C)=O)C(=O)N[C@@H](C)C(=O)N[C@@H](CC(C)C)[C@@H](O)CC(=O)N[C@@H](CC(C)C)C(=O)NCc1cccc(C(=O)O)c1` (Ac-IA[Sta]L[3Amb]-OH) and `CCCC[C@H](NC(=O)C[C@H](O)[C@H](CC(C)C)NC(=O)[C@H](C)NC(=O)[C@@H](NC(C)=O)[C@@H](C)CC)C(=O)NCc1cccc(C(=O)O)c1` (Ac-IA[Sta][Nle][3Amb]-OH) are within 0.2 log units of each other in pIC50: 6.59 for the first, 6.74 for the second.

`CC[C@H](C)[C@H](NC(C)=O)C(=O)N[C@@H](C)C(=O)N[C@@H](CC(C)C)[C@@H](O)CC(=O)N[C@@H](Cc1ccc(O)cc1)C(=O)NCc1cccc(C(=O)O)c1` (Ac-IA[Sta]Y[3Amb]-OH) and `CC[C@H](C)[C@H](NC(C)=O)C(=O)N[C@@H](CCSC)C(=O)N[C@@H](CC(C)C)[C@@H](O)CC(=O)N[C@@H](Cc1ccc(O)cc1)C(=O)NCc1cccc(C(=O)O)c1` (Ac-IM[Sta]Y[3Amb]-OH) are within 0.2 log units of each other in pIC50: 6.96 for the first, 7.04 for the second.

`CCCC[C@H](NC(=O)C[C@H](O)[C@H](CC(C)C)NC(=O)[C@H](CCSC)NC(=O)[C@@H](NC(C)=O)[C@@H](C)CC)C(=O)NCc1cccc(C(=O)O)c1` (Ac-IM[Sta][Nle][3Amb]-OH) and `CCC[C@H](NC(=O)C[C@H](O)[C@H](CC(C)C)NC(=O)[C@H](CCSC)NC(=O)[C@@H](NC(C)=O)[C@@H](C)CC)C(=O)NCc1cccc(C(=O)O)c1` (Ac-IM[Sta][Nva][3Amb]-OH) are within 0.2 log units of each other in pIC50: 7.07 for the first, 6.89 for the second.

First: CC(=O)N[C@H](C(=O)N[C@@H](C)C(=O)N[C@@H](CC(C)C)[C@@H](O)CC(=O)N[C@H](C(=O)NCc1cccc(C(=O)O)c1)C(C)C)C(C)C (Ac-VA[Sta]V[3Amb]-OH)
Second: CCCC[C@H](NC(C)=O)C(=O)N[C@@H](C)C(=O)N[C@@H](CC(C)C)[C@@H](O)CC(=O)N[C@H](C(=O)NCc1cccc(C(=O)O)c1)C(C)C (Ac-[Nle]A[Sta]V[3Amb]-OH)
The pIC50 of the first is 0.43 log units lower: 5.42 for the first, 5.85 for the second. The second is the more potent here.

Compared with `CC(C)C[C@H](NC(=O)[C@H](C)NC(=O)[C@@H](NC(=O)[C@@H](N)CCC(=O)O)C(C)C)[C@@H](O)CC(=O)N[C@H](C(=O)N[C@@H](C)C(=O)N[C@@H](CCC(=O)O)C(=O)N[C@@H](Cc1ccccc1)C(=O)O)C(C)C` (H-EVA[Sta]VAEF-OH), `CSCC[C@H](NC(=O)[C@@H](NC(=O)[C@@H](N)CCC(=O)O)C(C)C)C(=O)N[C@@H](CC(C)C)[C@@H](O)CC(=O)N[C@H](C(=O)N[C@@H](C)C(=O)N[C@@H](CCC(=O)O)C(=O)N[C@@H](Cc1ccccc1)C(=O)O)C(C)C` (H-EVM[Sta]VAEF-OH) is 0.28 log units higher in pIC50: 6.96 for the first, 7.24 for the second.

`CC[C@H](C)[C@H](NC(=O)C[C@H](O)[C@H](CC(C)C)NC(=O)[C@H](CCSC)NC(=O)[C@@H](NC(=O)[C@@H](N)CCC(=O)O)C(C)C)C(=O)N[C@@H](C)C(=O)N[C@@H](CCC(=O)O)C(=O)N[C@@H](Cc1ccccc1)C(=O)O` (H-EVM[Sta]IAEF-OH) and `CSCC[C@H](NC(=O)[C@@H](NC(=O)[C@@H](N)CCC(=O)O)C(C)C)C(=O)N[C@@H](CC(C)C)[C@@H](O)CC(=O)N[C@@H](CC(C)C)C(=O)N[C@@H](C)C(=O)N[C@@H](CCC(=O)O)C(=O)N[C@@H](Cc1ccccc1)C(=O)O` (H-EVM[Sta]LAEF-OH) are within 0.2 log units of each other in pIC50: 6.66 for the first, 6.85 for the second.

Compared with `CC(C)C[C@H](NC(=O)[C@H](CC(N)=O)NC(=O)[C@@H](NC(=O)[C@@H](N)CCC(=O)O)C(C)C)[C@@H](O)CC(N)=O` (H-EVN[Sta]-NH2), `CC(C)C[C@H](NC(=O)[C@H](CC(N)=O)NC(=O)[C@@H](NC(=O)[C@@H](N)CCC(=O)O)C(C)C)[C@@H](O)CC(=O)N[C@H](C(N)=O)C(C)C` (H-EVN[Sta]V-NH2) is higher in pIC50: < 4.04 for the first, 5.03 for the second.

Compared with `CC(C)C[C@H](NC(=O)[C@H](CC(N)=O)NC(=O)[C@@H](NC(=O)[C@@H](N)CCC(=O)O)C(C)C)[C@@H](O)CC(=O)N[C@H](C(=O)N[C@@H](C)C(N)=O)C(C)C` (H-EVN[Sta]VA-NH2), `CC(C)C[C@H](NC(=O)[C@H](CC(N)=O)NC(=O)[C@@H](NC(=O)[C@@H](N)CCC(=O)O)C(C)C)[C@@H](O)CC(=O)N[C@H](C(=O)N[C@@H](C)C(=O)N[C@@H](CCC(=O)O)C(N)=O)C(C)C` (H-EVN[Sta]VAE-NH2) is 0.68 log units higher in pIC50: 6.28 for the first, 6.96 for the second. The second is the more potent here.

First: CC(C)C[C@H](NC(=O)[C@H](CC(N)=O)NC(=O)[C@@H](NC(=O)[C@@H](N)CCC(=O)O)C(C)C)[C@@H](O)CC(=O)N[C@H](C(=O)N[C@@H](C)C(=O)N[C@@H](CCC(=O)O)C(=O)N[C@@H](Cc1ccccc1)C(=O)O)C(C)C (H-EVN[Sta]VAEF-OH)
Second: CC(C)C[C@H](NC(=O)[C@H](CC(N)=O)NC(=O)[C@@H](N)C(C)C)[C@@H](O)CC(=O)N[C@H](C(=O)N[C@@H](C)C(=O)N[C@@H](CCC(=O)O)C(=O)N[C@@H](Cc1ccccc1)C(=O)O)C(C)C (H-VN[Sta]VAEF-OH)
The pIC50 of the first is 1.64 log units higher: 7.34 for the first, 5.70 for the second.

Compared with `CC(C)C[C@H](NC(=O)[C@@H](N)CC(N)=O)[C@@H](O)CC(=O)N[C@H](C(=O)N[C@@H](C)C(=O)N[C@@H](CCC(=O)O)C(=O)N[C@@H](Cc1ccccc1)C(=O)O)C(C)C` (H-N[Sta]VAEF-OH), `CC[C@H](C)[C@H](NC(=O)C1CCCCO1)C(=O)N[C@@H](C)C(=O)N[C@@H](CC(C)C)[C@@H](O)CC(=O)N[C@H](C(=O)NCc1cccc(C(=O)O)c1)C(C)C` (stereo not given in full) (X1-IA[Sta]V[3Amb]-OH) is higher in pIC50: < 4.04 for the first, 7.16 for the second.
